In patent publication US20240376121A1, “COMPOUNDS AND USES THEREOF” (Foghorn Therapeutics Inc., priority 2021, published 2024):

Experiments:
[1] = target: T1, HiBit-BRG1 fusion protein (Homo sapiens, UniProt P51532); experiment: HiBiT-BRG1 cell-based degradation assay (Nano-Glo HiBiT Lytic Detection); conditions: stable HeLa cell line expressing HiBit-BRG1 and LgBit, 24 h incubation; for Dmax: top dose 30 μM, read-out: BRG1 HiBit Degradation Maximum (%); for DC50: read-out: BRMG1 HiBit Degradation IC50
T1 construct: expressed in transfected cells
Experimental: (§1) Procedure: A stable HeLa cell line expressing HiBiT-BRM was generated. On day 0, 5000 cells were seeded in 40 μL of media into each well of 384-well cell culture plates. On day 1, cells were treated with 120 nL DMSO or 120 nL of 3-fold serially DMSO-diluted compounds (10 points in duplicate with 30 μM as final top dose). Subsequently plates were incubated for 24 h in a standard tissue culture incubator and equilibrated at room temperature for 15 minutes. Nano-Glo HiBiT Lytic Detection System (Promega N3050) reagent was freshly prepared and 20 ul was added to each well. Upon addition of this LgBit-containing reagent, the HiBiT and LgBiT proteins associate to form the luminescent NanoBiT luciferase. The plates were shaken for 10 minutes at room temperature and the bioluminescence read using an EnVision plate reader (PerkinElmer).
For measurement of BRG1 degradation, a stable HeLa cell line expressing HiBit-BRG1 and LgBit was generated. The same protocol as above was then followed.
(§2) The degradation % was calculated using the following formula: % degradation=100%−100%×(LumSample−LumLC)/(LumHC−LumLC). DMSO treated cells are employed as High Control (HC) and 2 μM of a known BRM/BRG1 degrader standard treated cells are employed as Low Control (LC).

[2] = target: T2, HiBit-BRM fusion protein (Homo sapiens, UniProt P51531); experiment: HiBiT-BRM cell-based degradation assay (Nano-Glo HiBiT Lytic Detection); conditions: stable HeLa cell line expressing HiBiT-BRM, 24 h incubation; for BRM HiBit Degradation Maximum (%): top dose 30 μM; for DC50: read-out: BRM HiBit Degradation IC50
T2 construct: expressed in transfected cells
Experimental: as §1, §2

T1 sequence (P51532 whole entry, the tested form may be a part): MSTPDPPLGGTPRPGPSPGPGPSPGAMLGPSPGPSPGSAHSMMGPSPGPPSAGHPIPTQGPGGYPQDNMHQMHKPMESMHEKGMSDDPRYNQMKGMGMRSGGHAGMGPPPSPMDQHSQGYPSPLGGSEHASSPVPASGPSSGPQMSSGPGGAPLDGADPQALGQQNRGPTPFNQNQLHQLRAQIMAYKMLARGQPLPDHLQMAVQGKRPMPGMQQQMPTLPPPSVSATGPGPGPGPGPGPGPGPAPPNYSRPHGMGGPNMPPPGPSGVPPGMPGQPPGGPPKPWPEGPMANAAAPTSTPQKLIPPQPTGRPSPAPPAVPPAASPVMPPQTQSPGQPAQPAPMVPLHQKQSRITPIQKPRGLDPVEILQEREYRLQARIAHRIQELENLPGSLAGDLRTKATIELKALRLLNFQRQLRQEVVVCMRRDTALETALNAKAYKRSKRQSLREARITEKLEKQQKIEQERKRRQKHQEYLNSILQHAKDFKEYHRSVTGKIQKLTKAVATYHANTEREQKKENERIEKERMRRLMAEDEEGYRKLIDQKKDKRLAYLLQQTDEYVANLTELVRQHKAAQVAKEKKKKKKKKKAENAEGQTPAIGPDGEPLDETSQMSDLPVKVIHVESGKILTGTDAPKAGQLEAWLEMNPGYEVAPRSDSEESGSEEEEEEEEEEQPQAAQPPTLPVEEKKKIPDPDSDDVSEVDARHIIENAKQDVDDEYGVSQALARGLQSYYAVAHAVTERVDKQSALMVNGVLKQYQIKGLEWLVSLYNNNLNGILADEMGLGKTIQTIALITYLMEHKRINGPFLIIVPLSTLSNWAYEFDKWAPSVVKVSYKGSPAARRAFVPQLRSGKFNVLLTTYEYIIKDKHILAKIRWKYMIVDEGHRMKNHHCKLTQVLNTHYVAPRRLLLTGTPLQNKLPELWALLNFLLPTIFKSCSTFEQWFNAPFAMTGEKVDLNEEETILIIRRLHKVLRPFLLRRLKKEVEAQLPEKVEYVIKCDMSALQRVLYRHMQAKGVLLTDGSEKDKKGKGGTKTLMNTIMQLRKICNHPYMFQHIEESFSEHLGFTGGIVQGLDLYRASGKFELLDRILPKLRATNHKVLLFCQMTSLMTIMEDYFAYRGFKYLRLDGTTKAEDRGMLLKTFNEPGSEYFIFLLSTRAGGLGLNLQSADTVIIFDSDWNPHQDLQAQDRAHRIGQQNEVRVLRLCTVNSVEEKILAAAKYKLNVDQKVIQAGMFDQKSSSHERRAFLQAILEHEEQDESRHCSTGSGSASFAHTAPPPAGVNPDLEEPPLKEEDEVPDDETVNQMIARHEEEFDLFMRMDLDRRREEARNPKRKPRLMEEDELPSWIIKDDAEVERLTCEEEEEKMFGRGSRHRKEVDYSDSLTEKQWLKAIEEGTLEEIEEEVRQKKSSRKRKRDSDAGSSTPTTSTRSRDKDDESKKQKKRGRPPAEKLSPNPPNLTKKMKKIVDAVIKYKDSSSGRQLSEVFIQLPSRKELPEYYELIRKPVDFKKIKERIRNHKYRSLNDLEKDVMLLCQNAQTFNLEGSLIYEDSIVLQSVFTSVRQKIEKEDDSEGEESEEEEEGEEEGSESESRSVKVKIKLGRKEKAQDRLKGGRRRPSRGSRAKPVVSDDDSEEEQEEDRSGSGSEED
T2 sequence (P51531 whole entry, the tested form may be a part): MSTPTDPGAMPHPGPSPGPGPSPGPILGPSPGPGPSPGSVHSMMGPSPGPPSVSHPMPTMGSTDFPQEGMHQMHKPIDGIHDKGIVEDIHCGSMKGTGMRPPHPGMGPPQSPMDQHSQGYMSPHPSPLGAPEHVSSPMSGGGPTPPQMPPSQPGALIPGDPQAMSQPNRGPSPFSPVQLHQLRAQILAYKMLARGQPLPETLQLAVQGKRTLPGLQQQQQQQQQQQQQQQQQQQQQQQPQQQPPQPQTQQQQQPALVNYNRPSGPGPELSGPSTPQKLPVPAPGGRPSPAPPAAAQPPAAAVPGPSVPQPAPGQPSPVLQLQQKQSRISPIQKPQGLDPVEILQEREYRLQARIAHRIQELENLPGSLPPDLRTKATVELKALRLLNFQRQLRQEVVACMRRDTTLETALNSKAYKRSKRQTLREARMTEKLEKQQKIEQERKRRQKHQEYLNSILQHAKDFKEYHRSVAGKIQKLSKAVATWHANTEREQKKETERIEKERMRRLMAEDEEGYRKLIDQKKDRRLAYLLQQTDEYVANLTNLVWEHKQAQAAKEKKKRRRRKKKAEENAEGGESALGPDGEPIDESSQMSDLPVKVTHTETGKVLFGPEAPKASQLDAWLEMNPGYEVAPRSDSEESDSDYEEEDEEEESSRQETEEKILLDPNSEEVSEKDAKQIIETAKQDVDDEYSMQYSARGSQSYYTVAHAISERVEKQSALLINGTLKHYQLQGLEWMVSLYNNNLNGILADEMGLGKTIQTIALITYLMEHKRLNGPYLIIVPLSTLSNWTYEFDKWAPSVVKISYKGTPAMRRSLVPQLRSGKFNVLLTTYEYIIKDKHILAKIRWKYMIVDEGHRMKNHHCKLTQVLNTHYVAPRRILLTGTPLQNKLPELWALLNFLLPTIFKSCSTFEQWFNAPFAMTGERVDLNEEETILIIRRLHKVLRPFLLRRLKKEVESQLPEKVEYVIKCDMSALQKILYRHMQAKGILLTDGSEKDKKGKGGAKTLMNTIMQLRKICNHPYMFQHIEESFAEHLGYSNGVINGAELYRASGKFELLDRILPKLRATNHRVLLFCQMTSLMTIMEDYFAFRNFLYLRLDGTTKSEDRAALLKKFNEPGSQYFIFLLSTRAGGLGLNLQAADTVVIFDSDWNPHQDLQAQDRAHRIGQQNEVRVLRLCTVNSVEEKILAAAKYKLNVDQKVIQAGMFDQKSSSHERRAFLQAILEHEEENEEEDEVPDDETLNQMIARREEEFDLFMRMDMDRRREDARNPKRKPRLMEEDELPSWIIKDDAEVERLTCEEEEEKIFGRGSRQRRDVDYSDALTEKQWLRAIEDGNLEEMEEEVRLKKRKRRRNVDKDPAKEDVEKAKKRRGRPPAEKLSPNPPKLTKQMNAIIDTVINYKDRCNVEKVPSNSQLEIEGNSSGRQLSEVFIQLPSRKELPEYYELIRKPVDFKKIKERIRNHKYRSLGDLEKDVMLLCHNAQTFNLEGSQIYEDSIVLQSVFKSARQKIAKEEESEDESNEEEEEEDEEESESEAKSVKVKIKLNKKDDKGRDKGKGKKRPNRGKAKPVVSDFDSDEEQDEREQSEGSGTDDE

| Structure (SMILES) | Dmax [1] [%] | DC50 [1] [µM] | BRM HiBit Degradation Maximum (%) [2] | DC50 [2] [µM] |
| --- | --- | --- | --- | --- |
| Cc1ncsc1-c1ccc([C@H](C)NC(=O)[C@@H]2C[C@@H](O)CN2C(=O)C(c2cc(C3CC(N4CCC(c5sc6nnc(-c7ccccc7O)cc6c5C)CC4)C3)no2)C(C)C)cc1 (single isomer, unassigned) [Compound 34] | < 50 | ≥ 1 | A (“A” indicates maximum degradation ≥ 75%) | ≥ 0.01 |
| Cc1ncsc1-c1ccc([C@H](C)NC(=O)[C@@H]2C[C@@H](O)CN2C(=O)[C@@H](c2cc(N3CCN(C(=O)[C@@H]4CCc5sc6nnc(-c7ccccc7O)cc6c5C4)CC3)no2)C(C)C)cc1 (single isomer, unassigned) [Compound 53] | < 50 | ≥ 1 | C (“C” indicates maximum degradation < 50%) | ≥ 1 |
| Cc1ncsc1-c1ccc(CNC(=O)[C@@H]2C[C@@H](O)CN2C(=O)[C@H](c2cc(N3CCOCC3)no2)C(C)C)c(OCCCN2CCC(c3sc4nnc(-c5ccccc5O)cc4c3C)CC2)c1 (single isomer, unassigned) [Compound 55] | < 50 | ≥ 1 | A (“A” indicates maximum degradation ≥ 75%) | ≥ 1 |
| Cc1ncsc1-c1ccc(CNC(=O)[C@@H]2C[C@@H](O)CN2C(=O)[C@@H](c2cc(N3CCOCC3)no2)C(C)C)c(OCCCN2CCC(c3sc4nnc(-c5ccccc5O)cc4c3C)CC2)c1 (single isomer, unassigned) [Compound 56] | < 50 | ≥ 1 | B (“B” indicates maximum degradation ≥ 50%) | ≥ 0.01 |
| Cc1ncsc1-c1ccc([C@H](C)NC(=O)[C@@H]2C[C@@H](O)CN2C(=O)[C@@H](c2cc(OCCN3CC(c4cc5cc(-c6ccccc6O)nnc5s4)C3)no2)C(C)C)cc1 [Compound 1, (2S,4R)-4-hydroxy-1-((R)-2-(3-(2-(3-(3-(2-hydroxyphenyl)thieno[2,3-c]pyridazin-6-yl)azetidin-1-yl)ethoxy)isoxazol-5-yl)-3-methylbutanoyl)-N—((S)-1-(4-(4-methylthiazol-5-yl)phenyl)ethyl)pyrrolidine-2-carboxamide] | < 50 | ≥ 1 | B (“B” indicates maximum degradation ≥ 50%) | ≥ 0.01 |
| Cc1ncsc1-c1ccc([C@H](C)NC(=O)[C@@H]2C[C@@H](O)CN2C(=O)[C@@H](c2cc(OCCN3CCC(c4cc5cc(-c6ccccc6O)nnc5s4)CC3)no2)C(C)C)cc1 [Compound 2, (2S,4R)-4-hydroxy-1-((R)-2-(3-(2-(4-(3-(2-hydroxyphenyl)thieno[2,3-c]pyridazin-6-yl)piperidin-1-yl)ethoxy)isoxazol-5-yl)-3-methylbutanoyl)-N—((S)-1-(4-(4-methylthiazol-5-yl)phenyl)ethyl)pyrrolidine-2-carboxamide] | < 50 | ≥ 1 | A (“A” indicates maximum degradation ≥ 75%) | ≥ 0.01 |
| Cc1ncsc1-c1ccc([C@H](C)NC(=O)[C@@H]2C[C@@H](O)CN2C(=O)[C@@H](c2cc(N3CCN(C(=O)CN4CC(c5cc6cc(-c7ccccc7O)nnc6s5)C4)CC3)no2)C(C)C)cc1 [Compound 3, (2S,4R)-4-hydroxy-1-[(2R)-2-{3-[4-(2-{3-[3-(2-hydroxyphenyl)thieno[2,3-c]pyridazin-6-yl]azetidin-1-yl}acetyl)piperazin-1-yl]-1,2-oxazol-5-yl}-3-methylbutanoyl]-N-[(1S)-1-[4-(4-methyl-1,3-thiazol-5-yl)phenyl]ethyl]pyrrolidine-2-carboxamide] | < 50 | ≥ 1 | A (“A” indicates maximum degradation ≥ 75%) | ≥ 0.1 |
